A short description of series [1]: In Vitro Microsome Stability Assay (human). To be noted: human liver microsomes, 30 min w/ NADPH. The class given is in vitro ADME. In a few lines: (§1)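 Species liver microsomes in potassium phosphate buffer were preincubated at 37 °C for 3–5 min with test compound (added from 0.25 mM DMSO stock), then started with NADPH. Samples at 0 and 30 min were quenched with acetonitrile containing internal standard and analysed by LC-MS/MS; % remaining at 30 min used analyte/IS AUC ratios relative to t=0.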

A short description of series [2]: In Vitro Microsome Stability Assay (mouse). The class given is in vitro ADME. The note with it: mouse liver microsomes, 30 min w/ NADPH. An outline of the steps: as §1
Series [3] deals with HER3 signal sequence plus 4 amino acids fused to Gaussia Luciferase (HER3-ss+4aa/Gaussia Luciferase). Put plainly: Dox Induced HER3-ss-Gluc Assay. The class given is cell-based. To be noted: 24 hr, doxycycline induced, Flp-In 293 T-REx cells; read-out: 24 hr Dox Inducible Her3(ss + 4) Gluc 293FRT/TO: Mean 1050. The text has this: FIp-In 293 T-REx™ cells were transfected with pcDNA™5/FRT/TO plasmid inserted with cDNA encoding Gaussia Luciferase fused to the 3′ end of cDNA encoding HER3 signal sequence plus 4 amino acids (N-[…]-C) (SEQ ID NO: 2). Transfected cells were selected for resistance to the selectable markers Hygromycin and Blasticidin to create a stable cell line that contained the HER3-ss+4aa/Gaussia Luciferase cDNA insert whose expression was regulated under the T-REx™ system. The day before assay, cells were trypsinized and plated in 384-well tissue culture plates. The next day, compound dilutions in DMSO/media containing doxycycline were added to the wells and incubated at 37° C., 5% CO2.
For chemical structures that include one or more stereoisomers, but are illustrated without indicating stereochemistry, the assay data refers to a mixture of stereoisomers.

The test system of series [4] is full length IL-2 (amino acids 1-153) fused to Gaussia Luciferase. Briefly: Dox Induced IL2-FL-Gluc Assay. The class given is cell-based. To be noted: 24 hr, Dox inducible, 293FRT/TO cells; read-out: 24 hr Dox Inducible IL2FLGluc 293FRT/TO: Mean IC50. In a few lines:
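Flp-In 293 T-REx stable line expressing full-length IL-2 (aa 1-153) with C-terminal Gaussia luciferase fusion under doxycycline-inducible control. Cells plated the day before; compound dilutions added in DMSO/media containing doxycycline, incubated at 37° C, 5% CO2.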

In series [5] the test system is PD1 signal sequence plus 10 amino acids fused to Gaussia Luciferase (PD1-ss+10aa/Gaussia Luciferase). Briefly: Dox Induced PD1-ss-Gluc Assay. The note with it: 24 hr, Dox inducible, 293FRT/TO cells; read-out: 24 hr Dox Inducible PD1ssGluc 293FRT/TO: Mean IC50. The class given is cell-based. In a few lines:
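Stable Flp-In 293 T-REx line expressing the fusion under tetracycline-inducible control, plated the day before assay. Compound dilutions added with doxycycline and incubated at 37 °C, 5% CO2; unspecified stereocentres mean data refer to stereoisomer mixtures.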

For series [6], the system named is multiple myeloma cell line U266B1. Briefly: U266 Cell Viability Assay. The class given is cell-based, human. The note with it: Homo sapiens, U-266; 48 hr, U266, Celltiter-Glo. An outline of the steps:
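U266B1 myeloma cells in RPMI 1640 with 10% FBS were treated with compound dilutions for 48 h at 37° C, 5% CO2. Viability was read as CellTiter-Glo luminescence. Data for structures drawn without stereochemistry refer to stereoisomer mixtures.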

Series [7] concerns full length TNFα (amino acids 1-233) fused to Gaussia Luciferase. Put plainly: Dox Induced TNFα-FL-Gluc Assay. The class given is cell-based. The note with it: 24 hr, Dox inducible, 293FRT/TO cells; read-out: 24 hr Dox Inducible TNFaFLGluc 293FRT/TO: Mean IC50. An outline of the steps:
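Stable Flp-In 293 T-REx line expressing doxycycline-inducible full-length TNFα fused to Gaussia luciferase; cells plated the day before, then treated with compound dilutions in doxycycline-containing medium at 37° C, 5% CO2. Unspecified stereocentres mean stereoisomer mixtures were tested.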

Series [8] deals with multiple myeloma cell line NCl-H929. Briefly: H929 Cell Viability Assay. The class given is cell-based, human. The note with it: Homo sapiens, NCI-H929, 48 h, H929, Celltiter-Glo. An outline of the steps: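 NCI-H929 myeloma cells in RPMI 1640 with 10% FBS were treated with compound dilutions for 48 h at 37 °C, and viability was then read by CellTiter-Glo luminescence. Compounds drawn without stereochemistry were tested as stereoisomer mixtures.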

The nature of series [9]: In Vitro Microsome Stability Assay (rat). The class given is in vitro ADME. To be noted: rat liver microsomes, 30 min w/ NADPH. An outline of the steps:
as §1

Series [10] in a line: In Vitro Microsome Stability Assay (monkey). The class given is in vitro ADME. The note with it: monkey liver microsomes, 30 min w/ NADPH. In a few lines: as §1

Where only a bound is given, the exact number is not on record here.

On to `C[C@H]1CN(S(=O)(=O)c2ccc(C(=O)N(C)C)cc2)CCCN(CC2CCCCC2)CCCN(S(=O)(=O)N2CCc3cc(Cl)ccc3C2)C1` [A179, 4-{[(3S)-5-[(6-chloro-1,2,3,4-tetrahydroisoquinolin-2-yl)sulfonyl]-9-(cyclohexylmethyl)-3-methyl-1,5,9-triazacyclododecan-1-yl]sulfonyl}-N,N-dimethylbenzamide], for which, in series [1], the “Liver Microsome Stability-% Left after 30 min w/ NADPH (%) Human” value (“Liver Microsome Stability-% Left … (%) Human” for short) is on record as 0.04%. Also, the “Liver Microsome Stability-% Left after 30 min w/ NADPH (%) Mouse” value (“Liver Microsome Stability-% Left … (%) Mouse” below) in series [2] is given as 0.5%. The IC50 in series [3] worked out at 400 nM; in series [4], 72.6 nM; in [5], 270 nM; in series [7] it was 3250 nM. The EC50 was over 25000 nM in series [6] and 11300 nM in series [8]. Moreover, in [9], the “Liver Microsome Stability-% Left after 30 min w/ NADPH (%) Rat” value (shortened to “Liver Microsome Stability-% Left … (%) Rat”) was determined as 0.18%. In addition, in [10], the “Liver Microsome Stability-% Left after 30 min w/ NADPH (%) Monkey” value (shortened to “Liver Microsome Stability-% Left … (%) Monkey”) is given as 0.26%.

For `CC[C@H]1CN(S(=O)(=O)c2ccc(N(C)C)cc2)CCCN(CC2CCCCC2)CCCN(S(=O)(=O)N2CCc3cc(Cl)ccc3C2)C1` [A182], the “Liver Microsome Stability-% Left … (%) Human” value in series [1] turned out to be 53.7%. For the same molecule, in series [2], the “Liver Microsome Stability-% Left … (%) Mouse” value came out at 61.7%. Moreover, the IC50 in [3] came to 203 nM; in series [4], 256 nM; in series [5] it was 78.8 nM; in series [7], 1960 nM. In addition, the concentration for a half-maximal effect (EC50) in series [6] and in series [8] was over 25000 nM each time. The “Liver Microsome Stability-% Left … (%) Rat” value in [9] was 41.9%. Moreover, the “Liver Microsome Stability-% Left … (%) Monkey” value in series [10] was 41.5%.

Consider `C[C@H]1CN(S(=O)(=O)c2ccc(N(C)C)cc2)CCCN(CC2CCCCC2)CCCN(S(=O)(=O)N(C)Cc2ccccc2)C1` [A184, (3S)-N-benzyl-9-(cyclohexylmethyl)-5-[4-(dimethylamino)benzenesulfonyl]-N,3-dimethyl-1,5,9-triazacyclododecane-1-sulfonamide], for which the “Liver Microsome Stability-% Left … (%) Human” value in series [1] amounted to 2.56%. In [2], the “Liver Microsome Stability-% Left … (%) Mouse” value is reported as 5.64%. Also, the IC50 came out at 156 nM in [3], 233 nM in [4], 100 nM in series [5] and 1080 nM in [7]. For the same molecule, the EC50 in series [6] is over 25000 nM; in series [8] it was 6920 nM. The “Liver Microsome Stability-% Left … (%) Rat” value in [9] is listed as 7.47%. Further, in series [10], the “Liver Microsome Stability-% Left … (%) Monkey” value was 1.23%.

Consider `C[C@H]1CN(S(=O)(=O)c2ccc(N(C)C)cc2)CCCN(CC2CCC(F)(F)CC2)CCCN(S(=O)(=O)N2CCc3cc(Cl)ccc3C2)C1` [A185, 4-{[(3S)-5-[(6-chloro-1,2,3,4-tetrahydroisoquinolin-2-yl)sulfonyl]-9-[(4,4-difluorocyclohexyl)methyl]-3-methyl-1,5,9-triazacyclododecan-1-yl]sulfonyl}-N,N-dimethylaniline], for which the “Liver Microsome Stability-% Left … (%) Human” value in series [1] was determined as 21.8%. Further, the “Liver Microsome Stability-% Left … (%) Mouse” value in series [2] came out at 30.1%. In addition, the IC50 was 85.5 nM in series [3], 85.4 nM in series [4], 43.2 nM in [5] and 573 nM in [7]. Besides, the EC50 in series [6] is over 25000 nM; in series [8], 1470 nM. Moreover, the “Liver Microsome Stability-% Left … (%) Rat” value in series [9] was found to be 37.8%. Besides, the “Liver Microsome Stability-% Left … (%) Monkey” value in series [10] amounted to 10.0%.

As to `C[C@@H]1CN(S(=O)(=O)NCc2ccccc2)CCCN(CC2CCCCC2)CCCN(S(=O)(=O)c2ccc(N(C)C)cc2)C1` [A187, (3S)-N-benzyl-9-(cyclohexylmethyl)-5-[4-(dimethylamino)benzenesulfonyl]-3-methyl-1,5,9-triazacyclododecane-1-sulfonamide], in series [1], the “Liver Microsome Stability-% Left … (%) Human” value came out at 0.05%. Also, the “Liver Microsome Stability-% Left … (%) Mouse” value in [2] was 0.03%. Moreover, the IC50 in series [3] was 802 nM; in series [4], 1090 nM; in [5], 427 nM; in series [7] it was 6170 nM. Also, the EC50 is over 25000 nM in series [6] and 3870 nM in series [8]. For the same molecule, the “Liver Microsome Stability-% Left … (%) Rat” value in [9] was found to be 0.07%. In [10], the “Liver Microsome Stability-% Left … (%) Monkey” value amounted to 0.15%.

As to `C[C@H]1CN(S(=O)(=O)c2ccc3c(ccn3C)c2)CCCN(CC2CCCCC2)CCCN(S(=O)(=O)N2CCc3cc(Cl)ccc3C2)C1` [A188, 6-chloro-2-{[(3S)-9-(cyclohexylmethyl)-3-methyl-5-[(1-methyl-1 H-indol-5-yl)sulfonyl]-1,5,9-triazacyclododecan-1-yl]sulfonyl}-1,2,3,4-tetrahydroisoquinoline], the “Liver Microsome Stability-% Left … (%) Human” value in series [1] came out at 27%. Besides, the “Liver Microsome Stability-% Left … (%) Mouse” value in series [2] is given as 4.48%. Also, the IC50 in [3] is 88 nM; in series [4], 99.3 nM; in [5], 38.9 nM; in series [7], 714 nM. Also, the EC50 in series [6] was over 25000 nM; in series [8] it was 1560 nM. Besides, the “Liver Microsome Stability-% Left … (%) Rat” value in [9] is reported as 27.8%. Besides, in [10], the “Liver Microsome Stability-% Left … (%) Monkey” value turned out to be 12.4%.

Regarding `CCc1ccc(CNS(=O)(=O)N2CCCN(CC3CCCCC3)CCCN(S(=O)(=O)c3ccc(N(C)C)cc3)C[C@H](C)C2)cc1` [A189, (3S)-9-(cyclohexylmethyl)-5-[4-(dimethylamino)benzenesulfonyl]-N-[(4-ethylpheny)methyl]-3-methyl-1,5,9-triazacyclododecane-1-sulfonamide], the “Liver Microsome Stability-% Left … (%) Human” value in series [1] came out at 0.06%. The “Liver Microsome Stability-% Left … (%) Mouse” value in series [2] was determined as 0.14%. For the same molecule, the IC50 in [3] amounted to 960 nM; in series [4], 1360 nM; in series [5] it was 512 nM; in series [7], 8140 nM. The figures for the EC50 in series [6] and in [8] were over 25000 nM and 10600 nM, respectively. For the same molecule, the “Liver Microsome Stability-% Left … (%) Rat” value in series [9] is 0.07%. Moreover, the “Liver Microsome Stability-% Left … (%) Monkey” value in series [10] was 0.01%.

For the molecule `C[C@H]1CN(S(=O)(=O)c2ccc(N(C)C)cc2)CCCN([C@@H](C)C2CCCCC2)CCCN(S(=O)(=O)N2CCc3cc(Cl)ccc3C2)C1` [A190, 4-{[(3S)-5-[(6-chloro-1,2,3,4-tetrahydroisoquinolin-2-yl)sulfonyl]-9-[(1 S)-1-cyclohexylethyl]-3-methyl-1,5,9-triazacyclododecan-1-yl]sulfonyl}-N,N-dimethylaniline], in series [1], the “Liver Microsome Stability-% Left … (%) Human” value came to 74.1%. Further, the “Liver Microsome Stability-% Left … (%) Mouse” value in [2] turned out to be 69.3%. The IC50 in [3] came out at 35.6 nM; in series [4] it was 45.7 nM; in series [5] it was 16.2 nM; in series [7], 295 nM. Besides, the EC50 in [6] was over 25000 nM; in series [8] it was 867 nM. The “Liver Microsome Stability-% Left … (%) Rat” value in series [9] is 85.3%. Besides, the “Liver Microsome Stability-% Left … (%) Monkey” value in series [10] is listed as 71.6%.

These data come from patent publication US11578055B2, “Triazacyclododecansulfonamide (“TCD”)-based protein secretion inhibitors” (KEZAR LIFE SCIENCES, priority 2018, dated 2023).
